Measured values taken from paper PMC7806935, “Exosite inhibition of ADAMTS-5 by a glycoconjugated arylsulfonamide” (Scientific Reports, 2021).

What was measured:
ADAMTS-5 [1] = molecular target: T1, ADAMTS-5 (Homo sapiens, UniProt Q9UNA0); assay: Versican digestion assay (V1-5GAG, sandwich ELISA), ADAMTS-5; format: biochemical; conditions: for IC50: protein substrate V1-5GAG, mean ± SEM (n = 3)
T1 construct: made in house
T1 sequence (Q9UNA0 262-930): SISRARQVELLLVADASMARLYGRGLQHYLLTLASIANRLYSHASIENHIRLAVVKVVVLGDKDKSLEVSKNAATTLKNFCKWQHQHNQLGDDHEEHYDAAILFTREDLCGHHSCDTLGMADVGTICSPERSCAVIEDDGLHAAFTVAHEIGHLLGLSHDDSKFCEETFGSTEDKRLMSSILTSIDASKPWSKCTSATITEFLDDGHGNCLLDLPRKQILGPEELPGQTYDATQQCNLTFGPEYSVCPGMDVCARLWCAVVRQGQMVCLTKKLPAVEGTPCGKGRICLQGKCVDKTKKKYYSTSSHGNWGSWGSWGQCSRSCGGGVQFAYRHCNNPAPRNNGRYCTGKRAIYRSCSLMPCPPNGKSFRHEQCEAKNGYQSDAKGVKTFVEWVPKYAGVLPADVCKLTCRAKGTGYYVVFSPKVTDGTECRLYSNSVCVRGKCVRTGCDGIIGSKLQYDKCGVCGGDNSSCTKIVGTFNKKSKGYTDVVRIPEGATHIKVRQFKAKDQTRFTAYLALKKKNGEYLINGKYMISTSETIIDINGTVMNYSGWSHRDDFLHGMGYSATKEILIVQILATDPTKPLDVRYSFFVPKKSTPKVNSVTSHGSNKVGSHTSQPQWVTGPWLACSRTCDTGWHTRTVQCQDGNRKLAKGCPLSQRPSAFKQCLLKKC
Description: (§1) All enzyme assays were conducted in TNC-B buffer (50 mM Tris–HCl, pH 7.5, 150 mM NaCl, 10 mM CaCl2, and 0.02% NaN3) at 37 °C. To avoid the formation of inhibitor aggregates, the detergent Brij-35 (0.05%) was added to the assay buffer. No aggregation was visually observed at concentrations up to 2 mM. The inhibitor stock solutions in DMSO (10 mM) were diluted at different concentrations in assay buffer and incubated with ADAMTS-4 or ADAMTS-5 for 2 h at 37 °C. Percent of inhibition was calculated from control reactions containing only DMSO. IC50 values were determined using the formula: vi/v0 = 1/(1 + [I]/IC50) where vi is the initial velocity of substrate cleavage in the presence of the inhibitor at concentration [I] and v0 is the initial velocity in the presence of an equal concentration (v/v) of DMSO.
(§2) ADAMTS-5 full-length (FL) (final concentration 0.4 nM), ADAMTS-5 MDTCS (0.4 nM) ADAMTS-5 MD (26 nM) or ADAMTS-4 (5.5 nM) were incubated with different concentrations of inhibitors or DMSO for 2 h at 37 °C in TNC-B buffer before addition of V1-5GAG (50 nM). At different time points (0–20 min), sub-samples were removed and reactions were stopped with EDTA. Maxisorp plates (VWR, Lutterworth, UK) were coated with 5 μg/mL anti-DPEEAE neoepitope antibody (Cat n. PA1-1748A, Life Technologies, Paisley, UK) in carbonate buffer pH 9.6 (16 h, 4 °C). This neoepitope antibody specifically recognizes the N-terminal versican fragment versikine, generated when ADAMTS-5 cleaves versican at the Glu441↓442Ala bond. Washing steps were performed in triplicate with 300 μL phosphate buffered-saline (PBS) containing 0.1% Tween-20 between each step. Plates were blocked with 3% bovine serum albumin (BSA)/PBS for 2 h, at RT. The samples from the digestion experiments were diluted in 3% BSA/PBS and added to the plate (100 μL, 2 h, RT). Bound versikine fragments were detected using anti-G1 monoclonal antibody (Cat n. ab171887, Abcam, Cambridge, UK) (3 μg/mL in 0.5% BSA/PBS, 1.5 h, RT), followed by horseradish peroxidase (HRP)-conjugated anti-mouse antibodies (Cat. N. P044701-2, Agilent Technologies LTD, Cheadle, UK) (2.4 μg/mL, 1 h, RT). The assay was developed by addition of o-phenylenediamine dihydrochloride (OPD, Cat n. 34006, Sigma Aldrich, Gillingham, UK) for 10 min and reactions were stopped with 2 M H2SO4. The absorbance was measured at 492 nm using a BioTeK Epoch (BioTek, Swindon, UK) plate reader. For each dilution, the amount of neoepitope generated was derived from a standard curve (0–1.56 nM) of V1-5GAG completely digested with ADAMTS-5. Initial velocities were calculated from the concentration of versikine generated as a function of reaction time and IC50 values were determined.
(§3) For inhibition studies, initial rates of proteolysis (< 20% cleavage) were analyzed between 0 and 20 min. For determination of the specificity constants (kcat/Km), digestion reactions were allowed to occur to completion (0–2 h). Data were analyzed as previously described.

ADAMTS-4 [2] = molecular target: T2, ADAMTS-4 (Homo sapiens, UniProt O75173); assay: Versican digestion assay (V1-5GAG, sandwich ELISA), ADAMTS-4; format: biochemical; conditions: protein substrate V1-5GAG, mean ± SEM (n = 3)
T2 construct: made in house
T2 sequence (O75173 213-837): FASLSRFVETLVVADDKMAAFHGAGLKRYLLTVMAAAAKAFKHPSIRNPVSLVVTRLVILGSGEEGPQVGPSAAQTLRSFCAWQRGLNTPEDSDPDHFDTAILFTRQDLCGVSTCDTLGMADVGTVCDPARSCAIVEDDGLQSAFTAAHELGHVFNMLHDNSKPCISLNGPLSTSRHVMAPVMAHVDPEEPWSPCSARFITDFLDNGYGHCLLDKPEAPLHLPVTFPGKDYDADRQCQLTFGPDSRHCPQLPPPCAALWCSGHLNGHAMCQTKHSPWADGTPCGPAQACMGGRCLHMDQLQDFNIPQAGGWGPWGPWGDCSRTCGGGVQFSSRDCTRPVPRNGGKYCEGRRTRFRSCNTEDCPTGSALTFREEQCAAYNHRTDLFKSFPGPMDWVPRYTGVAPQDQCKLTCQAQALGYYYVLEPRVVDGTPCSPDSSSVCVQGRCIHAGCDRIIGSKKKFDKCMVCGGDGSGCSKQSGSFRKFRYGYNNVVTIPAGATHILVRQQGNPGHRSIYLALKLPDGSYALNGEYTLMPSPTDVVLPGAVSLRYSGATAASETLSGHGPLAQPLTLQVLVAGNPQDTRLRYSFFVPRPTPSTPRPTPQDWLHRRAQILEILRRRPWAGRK
Description: as §1, §2, §3

ADAMTS-5 [3] = molecular target: T1, ADAMTS-5; assay: QF peptide cleavage assay, ADAMTS-5; format: biochemical; conditions: 12-residue QF peptide substrate; mean ± SEM (n = 3); read-out: IC50 (μM) QF peptide ATS5
Description: as §1
(§4) QF peptide cleavage assays were conducted in 96-well black microtiter plates (Scientific Laboratories Supplies Ltd, Wilford, UK) using a Fluostar Omega microplate reader (BMG Labtech, Aylesbury, UK). The activity of ADAMTS-4 (1 nM) and -5 (5 nM) was monitored for 2 h using the fluorescent peptide substrates fluorescein 5(6)-carbonyl-Ala-Glu-Leu-[…]-Gly-Arg-Pro-Ile-Ser-Ile-Ala-Lys-N,N,N0,N0-tetramethyl-6-carboxyrhodamine-NH2 (FAM-AE ~ LQGRPISIAK-TAMRA, ADAMTS-4) and fluorescein 5(6)-carbonyl-Thr-Glu-Ser-Glu ~ Ser-Arg-Gly-Ala-Ile-Tyr-Lys-Lys-N,N,N0,N0-tetramethyl-6-carboxyrhodamine-NH2 (FAM-TESE ~ SRGAIYKK-TAMRA, ADAMTS-5) (custom-synthesized by Bachem, Bubendorf, Switzerland) with an excitation wavelength of 485 nm and an emission wavelength of 538 nm. Final substrate concentrations were 1 μM and 40 μM for ADAMTS-4 and -5, respectively. Fluorescence was expressed in relative fluorescence units (RFU) and normalized against a blank containing only buffer and substrate. Emission spectra were recorded at several concentrations of each compound to exclude auto-fluorescence and maximal inhibitor concentrations were selected accordingly.

ADAMTS-4 [4] = molecular target: T2, ADAMTS-4; assay: QF peptide cleavage assay, ADAMTS-4; format: biochemical; conditions: 12-residue QF peptide substrate; mean ± SEM (n = 3); read-out: IC50 (μM) QF peptide ATS4
Description: as §1, §4

[5] = molecular target: V1-5GAG, a truncated versican V1 variant (UniProt P13611)
[6] = read-out: IC50 (μM) V1-5GAG ATS5
[7] = read-out: IC50 (μM) V1-5GAG ATS4

Compound	IC50 (ADAMTS-5 [1]; read-out: IC50 (μM) ADAMTS-5) [µM]	IC50 (ADAMTS-4 [2]; read-out: IC50 (μM) ADAMTS-4) [µM]	kcat/Km for proteolysis of V1-5GAG (time course at 50 nM substrate, versikine by sandwich ELISA) [5] [M⁻¹ s⁻¹]	other results
CCC(C)N(Cc1cn(C2OC(CO)C(O)C(O)C2NC(C)=O)nn1)S(=O)(=O)c1ccc(-c2ccccc2)cc1 (mixture of isomers) [Compound 3b]	120 ± 20	50 ± 16		reduction in inhibition of ADAMTS-5 versicanase activity (ADAMTS-5 [1]; sugar directly linked to the sulfonamide scaffold, compared with n-propyloxy link): ~ 13 fold
CCC(C)N(Cc1cn(CCCOC2OC(CO)C(O)C(O)C2NC(C)=O)nn1)S(=O)(=O)c1ccc(OCc2ccc(F)cc2Cl)cc1 (mixture of isomers) [Compound 4c]				IC50 (ADAMTS-5 [3]): 57 ± 10 µM; reduction in inhibitory properties (ADAMTS-5 [1]; benzyloxyphenyl compound compared to 4b): 6 fold; IC50 (ADAMTS-5 [1]; [6]): 62 ± 12 µM; IC50 (ADAMTS-4 [2]; [7]): 90 ± 44 µM; IC50 (ADAMTS-4 [4]): > 50 µM
CCC(C)N(Cc1cn(CCCOC2OC(CO)C(O)C(O)C2NC(C)=O)nn1)S(=O)(=O)c1ccc(OCc2ccccc2)cc1 (mixture of isomers) [Compound 4d]				IC50 (ADAMTS-5 [3]): > 50 µM; IC50 (ADAMTS-5 [1]; [6]): 90 ± 23 µM; IC50 (ADAMTS-4 [2]; [7]): 180 ± 50 µM; IC50 (ADAMTS-4 [4]): > 50 µM
CC(=O)N[C@H]1[C@H](OCCCn2cc(CN([C@@H](C(=O)OCc3ccccc3)C(C)C)S(=O)(=O)c3ccc(-c4ccccc4)cc3)nn2)O[C@H](CO)[C@@H](O)[C@@H]1O [Compound 4a]	> 50	> 50		
ADAMTS-5 MDTCS K532Q/K533Q (enzyme)			401000	
ADAMTS-5 MDTCS K532A/K533A (enzyme)			675000	
CC(=O)N[C@@H]1[C@@H](O)[C@H](O)[C@@H](CO)O[C@H]1n1cc(CN([C@@H](C(=O)OCc2ccccc2)C(C)C)S(=O)(=O)c2ccc(-c3ccccc3)cc2)nn1 [Compound 3a]	> 50	> 50		
ADAMTS-5 MDTCS K533A (enzyme)			1.25e+06	
ADAMTS-5 MDTCS K533H (enzyme)			1.56e+06	
ADAMTS-5 MDTCS (lacking the C-terminal TS motif) (enzyme)			3.23e+06	
